Structure (SMILES) | pH of 1% w/v aqueous solution
O=C([O-])O.[Na+] [Sodium Bicarbonate, sodium bicarbonate] | pH 8.2
O=C([O-])CC(O)(CC(=O)[O-])C(=O)[O-].[Na+].[Na+].[Na+] [Sodium Citrate, sodium citrate] | pH 8.75
